Values of other authors as cited in patent US20040213782A1, “Compositions of an aquaporin modulating agent and an aqueous humor modulating agent for the treatment of elevated intraocular pressure” (Pharmacia Corporation, priority 2003, published 2004).

Columns and labels:
AQP1 = settings: epididymis of rats; Yu et al. (2002)
[1] = among corticosteroids; ophthalmic or systemic administration
AQP2 = settings: kidney of cardiomyopathic hamsters; Wong and Tsui (2002)

Compound	expression of AQP2 (AQP2)	other results
CC(=O)Nc1nnc(S(N)(=O)=O)s1 [acetazolamide]	–	level of AQP1 expression (AQP1): significant decrease
C[C@@H]1C[C@H]2[C@@H]3CCC4=CC(=O)C=C[C@]4(C)[C@@]3(F)[C@@H](O)C[C@]2(C)[C@@]1(O)C(=O)CO [dexamethasone]	–	increase in intraocular pressure [1]: most pronounced increase
CCOC(=O)[C@H](CCc1ccccc1)N[C@@H](C)C(=O)N1CCC[C@H]1C(=O)O [enalapril]	significant decrease	–
angiotensin II (DRVYIHPF; Angiotensin-2; UniProt P01019 25-32, looked up) [peptide that increases the expression of AQP2 in the kidney of cardiomyopathic hamsters]	increases	–
